# Where two headings read alike, the source gives them in different places.
# Assays:
# [1] = system: tonic hindlimb extension in the MEST test in rats; settings: cited from earlier work
# [2] = system: tonic hindlimb extension in the MEST test in mice; settings: cited from earlier work; for effect on threshold for tonic hindlimb extension: MEST test in mice
# [3] = Chimney test (motor coordination); format: in vivo, mice; settings: 150 mg/kg i.p.
# Protocol: The impact of SSR504734 on motor coordination in mice was evaluated by using the chimney test. Each animal was individually placed inside a transparent Plexiglas tube with an inner diameter of 3 cm and a length of 30 cm. The tube was horizontally positioned on a table and shifted vertically once the mouse reached the opposite end. Within a 60 s time frame, the mouse was required to climb backward to escape from the tube. In order to minimize the number of animals used, a chimney test was carried out shortly before seizure tests.
# (§1) Table S2. Time-course effect of SSR5504734 on neuromuscular strength and motor […]
# (§2) Group Neuromuscular strength Impairment of motor
# (§3) SSR504734 was dissolved in normal saline and injected i.p. at the dose of 30 mg/kg. Control animals received saline. The data are expressed as the mean ± SD of grip strengths measured in millinewtons per gram of mouse body weight (mN/g) from the grip-strength test assessing […]
# (§4) coordination impairment in the chimney test. Each experimental group consisted of 12 animals. The grip-strength test results were analyzed using a one-way ANOVA with Dunnett’s post hoc test, while the data from the chimney test were statistically evaluated using Fisher’s exact probability test. *p<0.05 vs. control group.
# (§5) Table S3. Effect of acute and 14-day treatment with SSR504734 on neuromuscular strength and motor coordination in mice
# (§6) In acute studies, SSR504734 and sodium valproate (VPA; positive control) were injected i.p.
# (§7) 60 and 15 min before the test, respectively. In subchronic studies, SSR504734 and VPA were injected i.p. every 24 h for 14 days. The last administration was made 60 and 15 min before the tests, respectively. Control animals received saline. Each experimental group consisted of 12 animals. The grip-strength test results were analyzed using a one-way ANOVA with […]
# (§8) Fisher’s exact probability test.
# [4] = system: tonic hindlimb extension in the MEST test in mice; experiment: Maximal electroshock seizure threshold (MEST) test; format: in vivo; settings: 150 mg/kg i.p.
# Protocol: A sinusoidal current alternation was delivered via saline-soaked transcorneal electrodes. Before stimulation, an ocular anesthetic (1% tetracaine hydrochloride solution obtained from Sigma-Aldrich, St. Louis, MO, USA) was administered to each eye of the mice. During stimulation, the mice were manually immobilized in a hand for 3–5 s and immediately relocated to a transparent box for behavioral observation after the stimulation. Hindlimb tonic extension was taken as an end point. Two experimental approaches were employed: (1) the maximal electroshock seizure threshold (MEST) test at varied current intensities and (2) the maximal electroshock (MES) test at a fixed current intensity.
# In the MEST test, seizure thresholds were determined using the “up-and-down” method described by Kimball et al.[28] […] Each mouse was stimulated only once.
# [5] = Grip strength test (neuromuscular strength); format: in vivo, mice; settings: 150 mg/kg i.p.
# Protocol: The effect of SSR504734 on neuromuscular strength was determined using the grip-strength apparatus (BioSeb, Chaville, France). The apparatus consists of a steel wire grid of 8 × 8 cm, connected to an isometric force transducer. Each mouse was held by the tail, allowing it to grasp the grid with its forepaws only and steadily pulled back until it released the grid. The maximum grip strength value (in newtons; N) was measured three times for each animal. The mean force was normalized to body weight and expressed in mN/g ± SD for each experimental group. In order to minimize the number of animals used, a grip-strength test was carried out shortly before seizure tests.
# as §1, §2, §3, §4, §5, §6, §7, §8
# [6] = system: 6 Hz-induced psychomotor seizures in mice; experiment: 6 Hz-induced psychomotor seizure threshold test; format: in vivo; settings: SSR504734 any of the doses tested, VPA 150 mg/kg
# Protocol: Psychomotor seizures were induced through the application of rectangular pulses (0.2 ms width; 6 pulses per second) for 3 s using a Grass model CCU1 constant current unit coupled to a Grass S48 stimulator (Grass Technologies, Warwick, RI, USA). Stimuli were delivered via saline-soaked transcorneal electrodes. An ocular anesthetic (1% tetracaine hydrochloride) was administered on the animal’s corneas. Mice were restrained manually during stimulation and placed in transparent box immediately for behavioral observation. 6 Hz-induced seizures were characterized by head-nodding, chewing, eye-blinking, twitching of the vibrissae, rearing, stunned posture, forelimb clonus, and Straub tail. The absence of the described features or the return to normal exploratory behavior within 20 s poststimulation was considered as the absence of seizures. The 6 Hz seizure threshold test were conducted on groups of 20 animals stimulated with different current intensities by using the “up-and-down” method described by Kimball et al.[28]
# The seizure threshold was quantified as the median current strength (CS50 value with confidence limits for 95% probability), predicting the induction of psychomotor seizures in 50% of the tested animals.
# [7] = system: i.v. PTZ-induced seizures in mice; experiment: Intravenous (i.v.) PTZ seizure threshold test; format: in vivo; settings: VPA 150 mg/kg
# Protocol: Mice were individually placed in a plastic restrainer (12 cm long, 3 cm inner diameter), and the lateral vein of each mouse was catheterized using a 27-gauge needle (Sterican, B. Braun Melsungen, Melsungen, Germany). The needle was attached by polyethylene tubing (PE20RW, Plastics One Inc., Roanoke, VA, USA) to a 10 mL plastic syringe containing 1% solution of PTZ in saline (Sigma-Aldrich, St. Louis, MO, USA) and mounted to a syringe pump (model Physio 22, Hugo Sachs Elektronik, Harvard Apparatus GmbH, March-Hugstetten, Germany). Piece of adhesive tape was used to secure the needle. The proper placement of the needle in the vein was verified by the appearance of blood in the tubing. During the test, mice were placed in a transparent box for observation. The PTZ solution was administered to freely moving mice at a constant rate of 0.2 mL/min. The time intervals from the initiation of PTZ infusion to the occurrence of the three following end points, i.e., (1) the first myoclonic twitch, (2) generalized clonic seizure with loss of righting reflex, and (3) forelimb tonus, were recorded. The PTZ infusion was terminated when tonic seizures, which were often fatal for the mice, began. All mice that survived were euthanized immediately. The thresholds were calculated separately for each end point using the following formula: threshold dose of PTZ (mg/kg) = infusion duration (s) × infusion rate (mL/s) × PTZ concentration (mg/mL)/body weight (kg). Seizure threshold was expressed as the amount of PTZ (mg/kg) ± SD (standard deviation) needed to produce the first observable sign of each end point. Each group consisted of 12–15 animals.
# [8] = PAMPA (Gentest Precoated PAMPA Plate System); format: in vitro ADME; settings: ± SD
# Protocol: (§9) A series of in vitro ADME-Tox tests were performed for SSR504734 in order to estimate its drugability. The ADME-Tox parameters including permeability, plasma protein binding, metabolic stability, neurotoxicity, and hepatotoxicity were carried out as described previously.[31],[32] The ability of SSR504734 to penetrate through the biological membrane by passive diffusion was estimated by the Gentest Precoated PAMPA Plate System (Corning, Tewksbury, MA) and expressed as the permeability coefficient (Pe). The protein binding analysis was performed by using the commercial TRANSIL^XL PPB test, which mimics in vitro physiological plasma conditions where human serum albumin (HAS) and alpha-1-acid glycoprotein AGP are present in a 24:1 ratio. The human metabolism of SSR504734 was studied using human liver microsomes (HLMs) provided by Sigma-Aldrich. The hepatotoxicity and neurotoxicity were estimated in cellular models with the use of hepatoma HepG2 and neuroblastoma SH-SY5Y cell lines to perform the preliminary safety tests. The cells were incubated with SSR504734 at the concentration range of 0.1–100 μM. 1 μM cytostatic drug doxorubicin (DX) was used as the reference.
# hepatoma HepG2 cells = experiment: Hepatotoxicity, HepG2 cell viability; format: cell-based
# Protocol: as §9
# (§10) Figure 8 Effect of cytostatic drug doxorubicin (DX) and SSR504734 on (A) hepatoma HepG2 and (B) neuroblastoma SH-SY5Y cell lines viability after 72 h of incubation at 37 °C, 5% CO2. Data are expressed as means ± SD. Statistical analysis: ****p < 0.0001 vs negative control −1% DMSO in growth media (one-way ANOVA, followed by Dunnett’s post hoc test).
# (§11) Figure S8. The effect of cytostatic drug doxorubicin and SSR504734 on (A) hepatoma
# (§12) HepG2 and (B) neuroblastoma SH-SY5Y cell line viability after 72 h of incubation at 37 °C,
# (§13) 5% CO2. The IC50 values were calculated by GraphPad Prism 8.0.
# (§14) (1 picture or pasted object on this page, not shown here)
# [9] = system: neuroblastoma SH-SY5Y cells; experiment: Neurotoxicity, SH-SY5Y cell viability; format: cell-based; settings: Homo sapiens; SH-SY5Y, 72 h of incubation
# Protocol: as §9, §10, §11, §12, §13, §14
# GlyT1 = settings: read-out: IC50 (competitive inhibitor of GlyT1); cited from earlier work
# rat GlyT1 = target: T1, rat GlyT1 (Rattus norvegicus, UniProt P28572); experiment: GlyT1 radioligand binding ([3H]glycine, rat brain cortex, Eurofins Panlabs); settings: rat brain cortex; read-out: IC50 (reference GlyT1 inhibitor in this testing system)
# T1 construct: tissue Eurofins Panlabs Discovery Services Taiwan, Ltd. (ran the assay); host or cells: Wistar rat brain cortex
# T1 sequence (P28572 1-638): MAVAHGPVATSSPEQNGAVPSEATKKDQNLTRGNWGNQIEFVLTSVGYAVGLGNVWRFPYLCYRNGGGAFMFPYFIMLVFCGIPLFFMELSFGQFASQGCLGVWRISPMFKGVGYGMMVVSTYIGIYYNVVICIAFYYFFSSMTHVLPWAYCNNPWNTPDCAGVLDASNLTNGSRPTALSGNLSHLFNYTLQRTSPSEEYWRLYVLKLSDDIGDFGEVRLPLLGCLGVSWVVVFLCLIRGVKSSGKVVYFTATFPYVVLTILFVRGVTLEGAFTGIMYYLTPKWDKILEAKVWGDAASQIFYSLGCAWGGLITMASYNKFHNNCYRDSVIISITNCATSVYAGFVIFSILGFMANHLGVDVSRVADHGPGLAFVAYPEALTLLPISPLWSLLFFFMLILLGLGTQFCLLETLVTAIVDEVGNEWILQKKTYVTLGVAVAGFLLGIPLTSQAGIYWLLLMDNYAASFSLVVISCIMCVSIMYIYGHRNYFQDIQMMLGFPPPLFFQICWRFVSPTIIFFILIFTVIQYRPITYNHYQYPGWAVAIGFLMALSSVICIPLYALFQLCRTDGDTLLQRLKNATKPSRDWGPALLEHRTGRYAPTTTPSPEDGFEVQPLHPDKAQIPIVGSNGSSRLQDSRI
# [10] = system: i.v. PTZ-induced seizures; settings: cited from earlier work
compound,measurement,setting,value
Cc1cccc(C)c1C(=O)N[C@@H](c1ccccc1)C1(N(C)C)CCCC1 [GSK931145],effect on threshold for tonic hindlimb extension,[1],"strong, dose-dependent increase"
CN(CCOc1ccc(-c2ccc3c(c2)OCO3)cc1C(C)(C)C)CC(=O)O [LY2365109],effect on seizure thresholds,"[2]; MEST- and PTZ-induced seizure tests, mice",increased seizure thresholds
CN(CCC(Oc1ccc(-c2ccccc2)cc1)c1ccc(F)cc1)CC(=O)O (stereo not drawn) [NFPS],effect on threshold for tonic hindlimb extension,[1],"strong, dose-dependent increase"
COc1ccc2c(c1)CC[C@H](CN(C)CC(=O)O)[C@@H]2c1ccccc1 [Org25935],effect on threshold for tonic hindlimb extension,[1],"strong, dose-dependent increase"
"CCCC(CCC)C(=O)O [VPA, sodium valproate]",Impairment of motor coordination,[3]; 14-day treatment,0%
same,Impairment of motor coordination,[3]; acute treatment,8.33%
same,fold increase of seizure threshold,[4]; 14-day administration,1.7 fold
same,fold increase of seizure threshold,"[4]; single administration, 15 min before test",1.8 fold
same,Neuromuscular strength,[5]; 14-day treatment,22.27 ± 4.84 mN/kg
same,Neuromuscular strength,[5]; acute treatment,29.73 ± 4.60 mN/kg
same,effect on current intensity necessary to induce psychomotor seizures,[6]; 14-day administration i.p.,marked increase
same,effect on current intensity necessary to induce psychomotor seizures,[6]; single administration i.p.,marked increase
same,"effect on thresholds for myoclonic twitch, generalized clonus and forelimb tonus",[7]; 14-day treatment i.p.,significantly increased the thresholds
same,"effect on thresholds for myoclonic twitch, generalized clonus and forelimb tonus",[7]; single administration i.p.,significantly increased the thresholds
Cn1c(=O)c2c(ncn2C)n(C)c1=O [caffeine],Papp,"[8]; PAMPA, read-out: PAMPA Pe",7.77 ± 2.3 ×10⁻⁶ cm/s
same,PAMPA Pe,[8],7.77 10^–6 cm/s
COc1cccc2c1C(=O)c1c(O)c3c(c(O)c1C2=O)C[C@@](O)(C(=O)CO)C[C@@H]3O[C@H]1C[C@H](N)[C@H](O)[C@H](C)O1 [doxorubicin],toxicity to HepG2 cells,"hepatoma HepG2 cells; 1 μM, 72 h",highly toxic
same,IC50,"hepatoma HepG2 cells; Homo sapiens, HepG2, 72 h of incubation",1.91 µM
same,IC50,[9],0.3 µM
CNCC(=O)O [sarcosine],effect on threshold for tonic hindlimb extension,[2],increased the threshold
same,effect on threshold for tonic hindlimb extension,[2]; listed as Sarcosine,raised the threshold
same,IC50,GlyT1,91 µM
same,IC50,rat GlyT1,55.8 µM
same,effect in the i.v. PTZ test,[10],devoid of any effect

# Source: PMC11926788, “Effect of SSR504734, a Selective Glycine Transporter Type 1 Inhibitor, on Seizure Thresholds, Neurotransmitter Levels, and Inflammatory Markers in Mice” (ACS Chemical Neuroscience, 2025)
